pIC50: −log10 of the molar value.
How the values were obtained:
Wild-Type ALK = target: T1, Wild-Type ALK (Homo sapiens, UniProt Q9UM73); assay: Z'-LYTE (FRET) ALK kinase inhibitory activity; format: biochemical
T1 construct: purchased Life Technology
Description: (§1) The kinase activity assay was determined by using kinase assay panel (Life Technology) and the result was in table 1.

[1] = tested on: zebrafish iridophore pigment cells; assay: Phenotypic screening of zebrafish: effect on iridophore pigment cells; format: in vivo, Zebrafish (Danio rerio); settings: for IOD: added at 6 hpf, images at 3 dpf
Text: Zebrafish (Danio rerio) is emerging as a predictive vertebrate animal model for in vivo assessment of drug efficacy, toxicity and safety. An important advantage of the zebrafish animal model is that the morphological and molecular basis of tissues and organs is either identical or similar to other vertebrates, including humans. The sequence and presumed function of many genes that are important for vertebrates are conserved in the zebrafish and the homology is as high as 85%. It has been shown that loss-of-function alleles for leukocyte tyrosine kinase (Ltk), the sister kinase to ALK, lack iridophores in zebrafish (Lopes, S. S., Yang, X., et al. (2008). Leukocyte tyrosine kinase functions in pigment cell development. PLoS Genet, 4.). Iridophores are neural crest-derived pigment cells that are clearly visible as shiny silver cells in the developing zebrafish embryo which distribute in the head, eyes, the lateral spine. ALK and LTK are sister kinase.
Therefore, using this principle, we investigated the effect of the compounds on normal zebrafish iridophore pigment cells to explore the compound's anti-ALK activity in vivo.
Method: Fish eggs of 6 hpf (hours post impurity) were randomly divided into groups. Then, subjects with different concentrations were added and the images were collected at 3 dpf (days post impurity). Then, the IOD (integrated option density) values of zebrafish dorsal iridophore pigment cells from the release pore to the caudal position were analyzed using ImageJ software. The Graphpad prism6.0 was used to conduct statistical analysis on Dunnett's t-test, and p<0.05 indicates statistical difference. The calculation formula of iridophore pigment inhibition rate is as follows: Inhibition rate (%)=[1−IOD(Compound)/IOD(vehicle)]×100%

NCI-H2228 tumor cells = assay: Subcutaneous NCI-H2228 lung cancer xenograft model; format: in vivo, BALB/C nude mice
Description: BALB/C nude mice were inoculated at the right flank with NCI-H2228 tumor cells to establish the human Lung cancer xenograft model. […] The drug was administered for 14 days and then discontinued for two weeks. The therapeutic effect was evaluated by calculating the relative tumor proliferation rate T/C (%), and the tolerability of treatment was evaluated by the body weight changes and death.
Tumor volume (TV) were measured twice per week in two dimensions using a caliper, and the volume were expressed in mm^3 using the formula: V=0.5 a×b^2 where a and b are the long and short diameters of the tumor, respectively.
Relative tumor volume RTV=Vt/V0, Vt=tumor volume of the drug-treated group on a given day of the study, V0=tumor volume of the drug-treated group on the initial day of dosing.
The T/C value (%) is an indicator of tumor response to treatment, and one of commonly used anti-tumor activity endpoint; T/C %=TRTV/CRTV×100% Relative Tumor Growth Inhibition; % TGI=(1−T/C)×100%;

TEL-ALK-L1196M-BaF3 = target: T2, TEL-ALK-L1196M-BaF3 (Homo sapiens, UniProt Q9UM73, L1196M, cells depend on it); assay: Cell proliferation experiment (Cell-Titer GLO), TEL-ALK-L1196M-BaF3; format: cell-based; settings: 72 h, read-out: IC50 TEL-ALK L1196M-BaF3
T2 construct: fused on or other part: TEL (ETV6) N-terminal oligomerising part fused before the ALK intracellular/kinase part; P41212 (Transcription factor ETV6)
Description: (§2) Cell lines: Karpas-299 and NCI-H3122 which were purchased from the Nanjing kebai biotechnology Co. LTD; TEL-ALK-F1174L-BaF3, TEL-ALK-G1202R-BaF3, TEL-ALK-C1156Y-BaF3 and TEL-ALK-L1196M-BaF3 which were purchased from Hefei zhongkopruisheng biological medicine technology Co. LTD.
(§3) Method: Cells were seeded in 96-well plates for 24 h in growth media containing 10% fetalbovine serum (FBS) and cultured overnight at 37° C. The following day, serial dilutions of compounds or appropriate control were added to the designated wells, and cells were incubated at 37° C. for 72 h. A Cell Titer Glo assay (Promega) was then performed to determine the relative cell numbers. IC50 values were calculated by concentration-response curve fitting using a four-parameter analytical method with Graphpad 6.0.

TEL-ALK-C1156Y-BaF3 = target: T3, TEL-ALK-C1156Y-BaF3 (Homo sapiens, UniProt Q9UM73, C1156Y, cells depend on it); assay: Cell proliferation experiment (Cell-Titer GLO), TEL-ALK-C1156Y-BaF3; format: cell-based; settings: 72 h, read-out: IC50 TEL-ALK C1156Y-BaF3
T3 construct: fused on or other part: TEL (ETV6) N-terminal oligomerising part fused before the ALK intracellular/kinase part; P41212 (Transcription factor ETV6)
Description: (§4) Compounds to be tested: Positive compound Ceritinib and the compounds obtained by the examples of the present invention.
as §2
as §3, with “6.0. Drug inhibition rate (%)=100%−[OD(Compound)−OD(blank)]/[OD(vehicle)−OD(blank)]×100% Equation: […]” for “6.0.”

TEL-ALK-G1202R-BaF3 = target: T4, TEL-ALK-G1202R-BaF3 (Homo sapiens, UniProt Q9UM73, G1202R, cells depend on it); assay: Cell proliferation experiment (Cell-Titer GLO), TEL-ALK-G1202R-BaF3; format: cell-based; settings: 72 h, read-out: IC50 TEL-ALK G1202R-BaF3
T4 construct: fused on or other part: TEL (ETV6) N-terminal oligomerising part fused before the ALK intracellular/kinase part; P41212 (Transcription factor ETV6)
Description: as §4, §2
as §3, with “6.0. Drug inhibition rate (%)=100%−[OD(Compound)−OD(blank)]/[OD(vehicle)−OD(blank)]×100% Equation: […]” for “6.0.”

ALK L1196M = target: T5, ALK L1196M (Homo sapiens, UniProt Q9UM73, L1196M); assay: LanthaScreen Eu Kinase Binding Assay (TR-FRET) on ALK mutant
T5 construct: purchased Life Technology
Text: Meanwhile, The LanthaScreen® Eu Kinase Binging Assay (TR-FRET) method was used for determining ALK Mutants (such as ALK L1196M) inhibitory activity IC50. LanthaScreen Eu kinase binding experiment detected Alexa Fluor conjugate or kinase “tracer” binding by adding Eu labeled antibodies or anti-label antibodies. The combination of tracer and antibody with kinase leads to a high level of FRET, whereas the use of kinase inhibitors in place of tracer may cause FRET loss.
as §1

TEL-ALK-F1174L-BaF3 = target: T6, TEL-ALK-F1174L-BaF3 (Homo sapiens, UniProt Q9UM73, F1174L, cells depend on it); assay: Cell proliferation experiment (Cell-Titer GLO), TEL-ALK-F1174L-BaF3; format: cell-based; settings: 72 h, read-out: IC50 TEL-ALK F1174L-BaF3
T6 construct: fused on or other part: TEL (ETV6) N-terminal oligomerising part fused before the ALK intracellular/kinase part; P41212 (Transcription factor ETV6)
Description: as §4, §2
as §3, with “6.0. Drug inhibition rate (%)=100%−[OD(Compound)−OD(blank)]/[OD(vehicle)−OD(blank)]×100% Equation: […]” for “6.0.”

Karpas-299 = assay: Cell proliferation experiment (Cell-Titer GLO), Karpas-299; format: cell-based; settings: Homo sapiens, 72 h
Description: as §4, §2
as §3, with “6.0. Drug inhibition rate (%)=100%−[OD(Compound)−OD(blank)]/[OD(vehicle)−OD(blank)]×100% Equation: […]” for “6.0.”

NCI-H3122 = assay: Cell proliferation experiment (Cell-Titer GLO), NCI-H3122; format: cell-based; settings: Homo sapiens, 72 h
Description: as §4, §2
as §3, with “6.0. Drug inhibition rate (%)=100%−[OD(Compound)−OD(blank)]/[OD(vehicle)−OD(blank)]×100% Equation: […]” for “6.0.”

T3 sequence (Q9UM73 whole entry C1156Y, the tested form may be a part): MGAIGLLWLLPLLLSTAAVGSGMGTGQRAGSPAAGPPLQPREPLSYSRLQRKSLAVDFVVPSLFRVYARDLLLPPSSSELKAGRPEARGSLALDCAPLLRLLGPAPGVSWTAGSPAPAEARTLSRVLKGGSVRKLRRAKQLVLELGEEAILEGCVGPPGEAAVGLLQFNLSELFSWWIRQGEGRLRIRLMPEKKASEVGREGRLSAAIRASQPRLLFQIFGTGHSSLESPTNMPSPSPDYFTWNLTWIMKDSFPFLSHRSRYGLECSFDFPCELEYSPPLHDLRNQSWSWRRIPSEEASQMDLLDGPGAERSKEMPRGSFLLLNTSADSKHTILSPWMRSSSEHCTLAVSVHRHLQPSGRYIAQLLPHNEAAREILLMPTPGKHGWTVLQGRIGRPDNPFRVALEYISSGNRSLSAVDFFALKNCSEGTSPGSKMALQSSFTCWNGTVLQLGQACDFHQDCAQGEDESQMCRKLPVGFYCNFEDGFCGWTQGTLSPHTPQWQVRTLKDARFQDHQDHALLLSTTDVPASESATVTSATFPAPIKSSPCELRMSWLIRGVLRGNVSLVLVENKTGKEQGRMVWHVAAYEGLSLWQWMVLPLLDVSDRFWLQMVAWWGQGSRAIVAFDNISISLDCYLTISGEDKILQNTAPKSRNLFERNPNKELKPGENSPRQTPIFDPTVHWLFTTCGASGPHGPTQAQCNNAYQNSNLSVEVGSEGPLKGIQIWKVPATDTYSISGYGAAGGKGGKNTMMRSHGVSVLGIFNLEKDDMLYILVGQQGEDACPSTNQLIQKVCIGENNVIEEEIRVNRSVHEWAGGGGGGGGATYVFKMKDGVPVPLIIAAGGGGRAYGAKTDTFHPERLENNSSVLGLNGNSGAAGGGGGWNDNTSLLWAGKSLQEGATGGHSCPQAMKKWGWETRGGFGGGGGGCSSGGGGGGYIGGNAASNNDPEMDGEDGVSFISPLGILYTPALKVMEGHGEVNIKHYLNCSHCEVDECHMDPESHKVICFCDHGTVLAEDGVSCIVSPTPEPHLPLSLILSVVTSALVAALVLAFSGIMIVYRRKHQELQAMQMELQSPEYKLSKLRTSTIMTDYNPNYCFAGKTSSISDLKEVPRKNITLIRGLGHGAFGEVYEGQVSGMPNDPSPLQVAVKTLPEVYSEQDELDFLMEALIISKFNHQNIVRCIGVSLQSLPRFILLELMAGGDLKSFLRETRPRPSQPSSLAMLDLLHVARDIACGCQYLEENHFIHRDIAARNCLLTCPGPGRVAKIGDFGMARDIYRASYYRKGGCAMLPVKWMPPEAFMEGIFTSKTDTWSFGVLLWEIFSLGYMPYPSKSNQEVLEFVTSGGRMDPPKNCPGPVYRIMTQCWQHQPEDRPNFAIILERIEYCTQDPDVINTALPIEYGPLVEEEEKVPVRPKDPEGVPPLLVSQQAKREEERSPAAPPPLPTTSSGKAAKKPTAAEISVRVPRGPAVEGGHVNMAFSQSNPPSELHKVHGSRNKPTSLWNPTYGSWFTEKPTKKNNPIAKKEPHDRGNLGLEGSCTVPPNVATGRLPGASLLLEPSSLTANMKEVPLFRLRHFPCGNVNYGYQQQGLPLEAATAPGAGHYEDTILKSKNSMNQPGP
T5 sequence (Q9UM73 19-1620 L1196M): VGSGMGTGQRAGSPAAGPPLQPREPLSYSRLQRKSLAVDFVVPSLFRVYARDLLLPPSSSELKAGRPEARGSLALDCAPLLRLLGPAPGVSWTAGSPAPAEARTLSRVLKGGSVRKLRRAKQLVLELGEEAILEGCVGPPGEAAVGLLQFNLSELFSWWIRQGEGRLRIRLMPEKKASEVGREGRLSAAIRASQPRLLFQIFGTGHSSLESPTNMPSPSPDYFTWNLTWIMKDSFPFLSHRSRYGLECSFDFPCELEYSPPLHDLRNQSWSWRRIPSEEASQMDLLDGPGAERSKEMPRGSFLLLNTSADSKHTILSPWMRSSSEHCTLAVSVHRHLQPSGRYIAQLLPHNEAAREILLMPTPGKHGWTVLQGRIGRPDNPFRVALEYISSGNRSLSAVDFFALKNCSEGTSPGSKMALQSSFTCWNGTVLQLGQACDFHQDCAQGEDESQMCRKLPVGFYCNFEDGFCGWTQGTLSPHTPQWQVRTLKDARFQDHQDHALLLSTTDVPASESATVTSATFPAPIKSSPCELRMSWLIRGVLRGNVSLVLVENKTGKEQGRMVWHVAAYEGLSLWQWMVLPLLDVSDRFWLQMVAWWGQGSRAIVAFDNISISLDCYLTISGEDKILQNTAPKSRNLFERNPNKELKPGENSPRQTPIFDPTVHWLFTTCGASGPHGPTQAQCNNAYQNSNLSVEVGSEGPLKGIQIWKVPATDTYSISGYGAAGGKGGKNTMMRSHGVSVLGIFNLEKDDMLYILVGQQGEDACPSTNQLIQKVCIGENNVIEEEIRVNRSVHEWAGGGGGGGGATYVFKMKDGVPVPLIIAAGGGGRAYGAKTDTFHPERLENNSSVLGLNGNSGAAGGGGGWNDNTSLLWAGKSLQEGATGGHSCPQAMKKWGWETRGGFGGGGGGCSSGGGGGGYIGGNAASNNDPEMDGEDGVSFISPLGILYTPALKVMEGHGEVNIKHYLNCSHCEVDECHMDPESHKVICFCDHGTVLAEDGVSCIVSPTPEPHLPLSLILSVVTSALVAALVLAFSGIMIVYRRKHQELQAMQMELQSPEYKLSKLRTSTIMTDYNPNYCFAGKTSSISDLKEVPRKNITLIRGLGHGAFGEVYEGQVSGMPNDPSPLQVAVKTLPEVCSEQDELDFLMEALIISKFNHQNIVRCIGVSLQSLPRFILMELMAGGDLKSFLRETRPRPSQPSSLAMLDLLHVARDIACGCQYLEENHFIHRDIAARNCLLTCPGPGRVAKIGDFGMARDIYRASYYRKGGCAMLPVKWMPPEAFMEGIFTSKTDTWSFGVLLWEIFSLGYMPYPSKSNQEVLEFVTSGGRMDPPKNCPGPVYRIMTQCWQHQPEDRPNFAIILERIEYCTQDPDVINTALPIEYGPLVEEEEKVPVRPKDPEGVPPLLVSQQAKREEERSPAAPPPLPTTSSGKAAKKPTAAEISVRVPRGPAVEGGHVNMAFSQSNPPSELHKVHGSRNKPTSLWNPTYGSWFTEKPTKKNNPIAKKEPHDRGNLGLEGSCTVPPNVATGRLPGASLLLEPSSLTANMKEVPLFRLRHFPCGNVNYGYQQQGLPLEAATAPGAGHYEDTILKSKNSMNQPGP
T1 sequence (Q9UM73 19-1620): as the sequence (Q9UM73 19-1620 L1196M) above, with M1178L counted along it
T2 sequence (Q9UM73 whole entry L1196M, the tested form may be a part): as the sequence (Q9UM73 whole entry C1156Y, the tested form may be a part) above, with Y1156C, L1196M counted along it
T6 sequence (Q9UM73 whole entry F1174L, the tested form may be a part): as the sequence (Q9UM73 whole entry C1156Y, the tested form may be a part) above, with Y1156C, F1174L counted along it
T4 sequence (Q9UM73 whole entry G1202R, the tested form may be a part): as the sequence (Q9UM73 whole entry C1156Y, the tested form may be a part) above, with Y1156C, G1202R counted along it

- pIC50 (Wild-Type ALK): 7.88
- GI50 (TEL-ALK-L1196M-BaF3): 10.5 nM
- GI50 (TEL-ALK-C1156Y-BaF3): 10.4 nM
- GI50 (TEL-ALK-G1202R-BaF3): < 50 nM
- pIC50 (ALK L1196M): 9.16
- GI50 (TEL-ALK-F1174L-BaF3): < 10 nM
- pIC50 (Karpas-299): > 8.00
- pIC50 (NCI-H3122): 7.97
SMILES: Cc1cc(Nc2ncc(Cl)c(Nc3cn(C)nc3S(=O)(=O)C(C)C)n2)c2c(c1C1CCN(C)CC1)C[C@@H](C)O2 [REX-D2, (R)-5-chloro-N^2-(2,5-dimethyl-4-(1-methylpiperidin-4-yl)-2,3-dihydrobenzofuran-7-yl)-N^4-(3-(isopropylsulfonyl)-1-methyl-1H-pyrazol-4-yl)pyrimidine-2,4-diamine]
- IOD ([1]; 5 μM): 420.9 ± 34.1
- IOD ([1]; 10 μM): 173.8 ± 20.5
- IOD ([1]; 15 μM): 64.6 ± 16.1
- IOD ([1]; 20 μM): 24.8 ± 5.8
- inhibition at 5 µM ([1]; Danio rerio, 5 μM, iridophore pigment, 3 dpf, read-out: Inhibition rate %): 38%
- inhibition at 10 µM ([1]; Danio rerio, 10 μM, iridophore pigment, 3 dpf, read-out: Inhibition rate %): 75%
- inhibition at 15 µM ([1]; Danio rerio, 15 μM, iridophore pigment, 3 dpf, read-out: Inhibition rate %): 91%
- inhibition at 20 µM ([1]; Danio rerio, 20 μM, iridophore pigment, 3 dpf, read-out: Inhibition rate %): 96%
- inhibition of the formation of iridophore pigment cells ([1]; different doses of concentration): significant inhibition
- TGI (NCI-H2228 tumor cells; 30 mg/kg PO QD 14 days, at 14 days after administration): 96.1%
- tumor volume (NCI-H2228 tumor cells; 30 mg/kg PO QD 14 days, at 14 days after administration (first day after administration end)): 13 mm^3
- TGI (NCI-H2228 tumor cells; 30 mg/kg PO QD 14 days, end of the experiment (15 days after the administration)): 98.8%
- anti-tumor effect (NCI-H2228 tumor cells; 30 mg/kg, once a day, continuously for 14 days): significant anti-tumor effect

Reference: US10710993B2, “Benzofuran pyrazole amine kinase inhibitor” (Hangzhou REX Pharmaceutical Co., LTD., priority 2016, dated 2020)
